ChEMBL document CHEMBL1148436, “Structural determinants for high 5-HT(2A) receptor affinity of spiro[9,10-dihydroanthracene]-9,3(')-pyrrolidine (SpAMDA)” (Bioorg Med Chem Lett, 2004)

Legend:
[1] = target: 5-hydroxytryptamine receptor 2A (Homo sapiens, UniProt P28223); test: Binding affinity towards 5-hydroxytryptamine 2A receptor using [3H]ketanserin
[2] = target: Sodium-dependent noradrenaline transporter (Homo sapiens, UniProt P23975); test: Binding affinity towards Norepinephrine transporter using [3H]nisoxitine as radioligand
[3] = target: Sodium-dependent serotonin transporter (Homo sapiens, UniProt P31645); test: Binding affinity towards Serotonin transporter using [3H]paroxetine as radioligand
[4] = target: T1, 5-hydroxytryptamine receptor 2C (Homo sapiens, UniProt P28335); test: Binding affinity towards 5-hydroxytryptamine 2C receptor using [3H]mesulergine as radioligand
T1 sequence (P28335 whole entry): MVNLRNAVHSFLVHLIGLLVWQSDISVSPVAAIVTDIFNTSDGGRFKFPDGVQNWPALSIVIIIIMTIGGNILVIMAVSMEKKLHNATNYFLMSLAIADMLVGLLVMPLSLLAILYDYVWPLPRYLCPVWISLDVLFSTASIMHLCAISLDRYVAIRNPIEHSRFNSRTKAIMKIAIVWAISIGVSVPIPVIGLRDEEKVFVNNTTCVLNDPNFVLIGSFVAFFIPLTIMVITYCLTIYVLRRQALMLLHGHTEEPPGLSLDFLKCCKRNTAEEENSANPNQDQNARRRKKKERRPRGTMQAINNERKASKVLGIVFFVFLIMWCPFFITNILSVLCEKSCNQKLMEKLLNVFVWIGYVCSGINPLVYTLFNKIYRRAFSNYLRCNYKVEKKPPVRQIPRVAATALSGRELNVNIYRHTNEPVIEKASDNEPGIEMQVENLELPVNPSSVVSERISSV

Row | SMILES | Ki [1] | other results
1 | c1ccc2c(c1)Cc1ccccc1C21CCCNC1 | 99 nM | –
2 | c1ccc2c(c1)CCc1ccccc1C21CCNC1 | 110 nM | –
3 | c1ccc2c(c1)Cc1ccccc1C21CCNC1 | – | Ki [2]: 10000 nM; Ki [3]: 3900 nM
4 | CN1CCC(=C2c3ccccc3C=Cc3ccccc32)CC1 [CYPROHEPTADINE] | – | Ki [4]: 11 nM
5 | c1ccc2c(c1)CCCC21CCNC1 (stereo not drawn) | > 10000 nM | –
6 | c1ccc(C2(c3ccccc3)CCNC2)cc1 | 4610 nM | –
7 | CN(C)CCCN1c2ccccc2CCc2ccccc21 [IMIPRAMINE] | – | Ki [4]: 160 nM
